In patent US11951088B2, “Fatty acid analogs and their use in the treatment of conditions related to metabolic syndrome” (Epitracker, Inc., priority 2017, dated 2024):
pEC50: −log10 of the molar value. Read-outs that look alike come from different tables or passages of the source. Blank lines part the entries; values can stand above or below the compound they belong to.

What was measured:
human PPAR-γ = biological target: T1, human PPAR-γ (Homo sapiens, UniProt P37231); test: PathHunter NHR Protein Interaction assay, PPAR-γ agonist activity (CHO cells)
T1 sequence (P37231 1-505): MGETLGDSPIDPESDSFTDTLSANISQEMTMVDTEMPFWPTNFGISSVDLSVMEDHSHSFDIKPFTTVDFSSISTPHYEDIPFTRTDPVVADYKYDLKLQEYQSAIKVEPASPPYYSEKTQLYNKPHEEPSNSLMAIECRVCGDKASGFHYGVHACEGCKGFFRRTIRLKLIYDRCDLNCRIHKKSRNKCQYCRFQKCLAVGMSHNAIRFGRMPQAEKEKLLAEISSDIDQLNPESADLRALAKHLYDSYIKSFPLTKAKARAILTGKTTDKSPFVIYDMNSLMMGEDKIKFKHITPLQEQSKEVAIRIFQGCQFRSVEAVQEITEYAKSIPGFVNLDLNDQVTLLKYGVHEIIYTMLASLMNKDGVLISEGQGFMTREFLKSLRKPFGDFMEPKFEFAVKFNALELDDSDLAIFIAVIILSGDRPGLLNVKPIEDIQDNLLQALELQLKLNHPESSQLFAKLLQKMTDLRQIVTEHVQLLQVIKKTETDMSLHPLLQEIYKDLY
Protocol: (§1) PPAR-α, PPAR-δ, and PPAR-γ agonist activities were measured using PathHunter Nuclear Hormone Receptor (NHR) Protein Interaction (Pro) assays (DiscoverX, Freemont, California). Briefly, Chinese hamster ovary (CHO) cell lines were used to monitor the activation of PPAR-α, PPAR-δ, and PPAR-γ in a homogenous, non-imaging assay format using Enzyme Fragment Complementation (EFC). The NHR Pro assay was based on detection of protein-protein interactions between activated, full length PPAR-α, PPAR-δ, and PPAR-γ proteins and a nuclear fusion protein containing Steroid Receptor Co-activator Peptide (SRCP) domains with one or more canonical LXXLL interaction motifs. PPAR-α, PPAR-δ, and PPAR-γ were tagged with the ProLink component of the EFC assay system, and the SRCP domain was fused to the enzyme acceptor component (EA) expressed in the nucleus. When bound by ligand, PPAR-α, PPAR-δ, or PPAR-γ migrated to the nucleus and recruited the SRCP domain, whereby complementation occurred, generating a unit of active β-Galactosidase (β-Gal) and production of chemiluminescent signal. […] Percentage activity was calculated using the following formula: % Activity=100%×(mean RLU of test sample−mean RLU of vehicle control)/(mean MAX control ligand−mean RLU of vehicle control).

human PPAR-α = biological target: T2, human PPAR-α (Homo sapiens, UniProt Q07869); test: PathHunter NHR Protein Interaction assay, PPAR-α agonist activity (CHO cells)
T2 sequence (Q07869 1-468): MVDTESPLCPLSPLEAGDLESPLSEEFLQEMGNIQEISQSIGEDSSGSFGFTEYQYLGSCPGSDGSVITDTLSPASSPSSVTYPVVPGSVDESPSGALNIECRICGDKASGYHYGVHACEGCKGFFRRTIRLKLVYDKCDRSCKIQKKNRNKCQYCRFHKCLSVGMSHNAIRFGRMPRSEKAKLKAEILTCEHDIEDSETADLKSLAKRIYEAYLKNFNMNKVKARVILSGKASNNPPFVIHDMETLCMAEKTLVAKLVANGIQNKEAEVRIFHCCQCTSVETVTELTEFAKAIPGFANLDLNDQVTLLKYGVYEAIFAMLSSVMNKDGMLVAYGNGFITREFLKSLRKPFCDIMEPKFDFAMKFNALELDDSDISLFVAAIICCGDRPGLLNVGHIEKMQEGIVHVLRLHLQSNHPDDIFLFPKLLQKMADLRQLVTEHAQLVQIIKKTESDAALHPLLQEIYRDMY
Protocol: as §1

human PPAR-δ = biological target: T3, human PPAR-δ (Homo sapiens, UniProt Q03181); test: PathHunter NHR Protein Interaction assay, PPAR-δ agonist activity (CHO cells)
T3 sequence (Q03181 1-441): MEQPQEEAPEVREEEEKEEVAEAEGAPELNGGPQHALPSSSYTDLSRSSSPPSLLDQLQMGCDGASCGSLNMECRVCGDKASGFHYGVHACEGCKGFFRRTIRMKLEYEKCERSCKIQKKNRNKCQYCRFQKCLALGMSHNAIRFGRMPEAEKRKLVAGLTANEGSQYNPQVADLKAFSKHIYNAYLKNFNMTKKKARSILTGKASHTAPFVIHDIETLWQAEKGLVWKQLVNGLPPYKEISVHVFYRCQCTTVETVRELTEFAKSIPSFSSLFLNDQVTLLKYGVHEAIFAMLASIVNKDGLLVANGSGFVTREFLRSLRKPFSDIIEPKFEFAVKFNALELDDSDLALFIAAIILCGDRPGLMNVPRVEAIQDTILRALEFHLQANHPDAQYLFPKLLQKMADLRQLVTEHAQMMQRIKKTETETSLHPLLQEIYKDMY
Protocol: as §1

[1] = system: C57BL/6J mice fed a high fat diet; test: diet-induced obese mice treated daily by gastric gavage for 12 weeks; format: in vivo; conditions: for Cholesterol / Glucose / IL-6 / Insulin / LDL-C / MCP-1 / TNF-α: Day 84, 6 h fasted
Protocol: Forty C57BL/6J mice were fed a high fat diet (HFD) (D12492, 60% kcals fat) for 8 weeks. Study mice were then divided into the following four groups of ten: vehicle controls, low dose C17:0-treated (5 mg/kg body weight), high-dose C17:0-treated (50 mg/kg body weight), and low-dose C15:0-treated (5 mg/kg body weight).
Table 1 provides comparisons of cardiometabolic effects in diet-induced obese mice treated daily with oral pentadecanoic acid (5 mg/kg BW), heptadecanoic acid (5 and 50 mg/kg BW) for 12 weeks compared to vehicle controls. “Results” values are based on 6 h fasted samples.

[2] = system: 12 human primary cell-based systems; test: BioMAP Diversity Plus panel, biomarker readouts; conditions: compared to C15:0-treated systems and non-treated controls; 740 nm and 2.2, 6.7 and 20 μM
Description: This study examined and compared activities of a saturated free fatty acid (C15:0) and three substituents (2-methyl-, 2,2-dimethyl-, and 1-tetrazole-C15:0) across 12 human primary cell-based systems as part of DiscoverX's BioMAP Diversity Plus program. These systems are designed to model complex human tissue and disease biology of the vasculature, skin, lung, and inflammatory tissues. Quantitative measurements of biomarker activities across this broad panel, along with comparative analysis of biological activities of known bioactive agents were used to predict and compare the efficacy and function of the four compounds.
BioMAP panels consist of human primary cell-based systems designed to model different aspects of the human body in an in vitro format. The 12 systems in the Diversity PLUS panel allow test agent characterization in an unbiased way across a broad set of systems modeling various human disease states. BioMAP systems are constructed with one or more primary cell types from healthy human donors, with stimuli (such as cytokines or growth factors) added to capture relevant signaling networks that naturally occur in human tissue or pathological conditions. Vascular biology is modeled in both a Th1 (3C system) and a Th2 (4H system) inflammatory environment, as well as in a Th1 inflammatory state specific to arterial smooth muscle cells (CASM3C system). Additional systems recapitulate aspects of the systemic immune response including monocyte-driven Th1 inflammation (LPS system) or T cell stimulation (SAg system), chronic Th1 inflammation driven by macrophage activation (lMphg system) and the T cell-dependent activation of B cells that occurs in germinal centers (BT system). The BE3C system (Th1) and the BF4T system (Th2) represent airway inflammation of the lung, while the MyoF system models myofibroblast-lung tissue remodeling. Lastly, skin biology is addressed in the KF3CT system modeling Th1 cutaneous inflammation and the HDF3CGF system modeling wound healing.
Each test agent generates a signature BioMAP profile that is created from the changes in protein biomarker readouts within individual system environments. Biomarker readouts (7-17 per system) are selected for therapeutic and biological relevance, are predictive for disease outcomes or specific drug effects and are validated using agents with known mechanism of action (MoA). Each readout is measured quantitatively by immune-based methods that detect protein (e.g., ELISA) or functional assays that measure proliferation and viability. BioMAP readouts are diverse and include cell surface receptors, cytokines, chemokines, matrix molecules and enzymes.

[3] = 24-hour plasma pharmacokinetics after single oral dose in rats; format: in vivo; conditions: for bioavailability: po
[4] = CHO, read-out: Maximum Response
[5] = Half Maximal Effective Concentration (EC50), PPAR-α, Table 5

SMILES: CCCCCCCCCCCCCCCC(=O)O [C16:0, palmitic acid]
pEC50 (human PPAR-γ): < 4.00 | Emax (human PPAR-γ; [4]): 4.68% | pEC50 (human PPAR-γ; PPAR-gamma, Table 7): < 4.00 | pEC50 (human PPAR-γ; read-out: Half Maximal Effective Concentration (EC50), PPAR-γ, Table 5): < 4.00 | Emax (human PPAR-α; [4]): 56.1% | pEC50 (human PPAR-α; EC50, PPAR-alpha, Table 4): 4.56 | pEC50 (human PPAR-α; EC50, PPAR-alpha, Table 7): 4.56 | pEC50 (human PPAR-α; [5]): 4.56

SMILES: CCCCCCCCCCCCCC(CC)C(=O)O (stereo not drawn) [2-ethyl-C15:0, 2-ethylpentadecanoic acid]
pEC50 (human PPAR-δ): 6.52 | EC50 % improvement over FFA form (human PPAR-δ; PPAR-δ, compared to free fatty acid form): 89% | pEC50 (human PPAR-γ): 4.29 | EC50 % improvement over FFA form (human PPAR-γ; PPAR-γ, compared to free fatty acid form): >49% | PPAR-γ agonist activity (in words) (human PPAR-γ; compared to the free fatty acid form): acquired PPAR-γ agonist activity | pEC50 (human PPAR-α; [5]): 5.92 | EC50 % improvement over FFA form (human PPAR-α; PPAR-α, compared to free fatty acid form): 90%

SMILES: CCCCCCCCCCCCCCCCC(=O)O [C17:0, heptadecanoic acid]
metabolic syndrome compared to vehicle controls (in words) ([1]; 12 weeks daily oral, C15:0 5 mg/kg, C17:0 5 and 50 mg/kg): trended toward attenuated metabolic syndrome | Cholesterol ([1]; 5 mg/kg daily oral): 197 ± 31 mg/dL | Glucose ([1]; 5 mg/kg daily oral): 296 ± 23 mg/dL | IL-6 ([1]; 5 mg/kg daily oral): 42 ± 40 pg/mL | Insulin ([1]; 5 mg/kg daily oral): 7.4 ± 4.8 ng/mL | LDL-C ([1]; 5 mg/kg daily oral): 9 ± 3 mg/dL | MCP-1 ([1]; 5 mg/kg daily oral): 86 ± 30 pg/mL | TNF-α ([1]; 5 mg/kg daily oral): 3.7 ± 1.9 pg/mL | Cholesterol ([1]; 50 mg/kg daily oral): 187 ± 44 mg/dL | Glucose ([1]; 50 mg/kg daily oral): 282 ± 31 mg/dL | IL-6 ([1]; 50 mg/kg daily oral): 38 ± 32 pg/mL | Insulin ([1]; 50 mg/kg daily oral): 6.8 ± 3.5 ng/mL | LDL-C ([1]; 50 mg/kg daily oral): 8 ± 3 mg/dL | MCP-1 ([1]; 50 mg/kg daily oral): 53 ± 32 pg/mL | TNF-α ([1]; 50 mg/kg daily oral): 1.5 ± 1.5 pg/mL | pEC50 (human PPAR-γ): < 4.00 | pEC50 (human PPAR-α; EC50, PPAR-alpha, Table 4): < 4.00

SMILES: CCCCCCCCCCCCCC(=O)O [C14:0, myristic acid]
pEC50 (human PPAR-γ): < 4.00 | pEC50 (human PPAR-α; EC50, PPAR-alpha, Table 4): 5.08 | pEC50 (human PPAR-α; [5]): 5.08

SMILES: CCCCCCCCCCCCCC(C)(C)C(=O)O [2,2-dimethyl-C15:0, 2,2-dimethylpentadecanoic acid]
CD38 [2]: lower | CD99 [2]: lower | ICAM-1 [2]: lower | IL-1α [2]: lower | IL-8 [2]: lower | IP-10 [2]: lower | IP-18 [2]: lower | MCP-1 [2]: lower | MIG [2]: lower | MMP-1 [2]: lower | MMP-3 [2]: lower | MMP-9 [2]: lower | PAI-1 [2]: lower | VCAM-1 [2]: lower | eotaxin-3 [2]: lower | keratin 8/18 [2]: lower | tissue factor [2]: lower

Cmin ([3]; 5 mg/kg single oral dose): 660 ng/mL | Tlast ([3]; 5 mg/kg single oral dose): 24 h | Cmin ([3]; 35 mg/kg single oral dose): 3790 ng/mL | Tlast ([3]; 35 mg/kg single oral dose): 24 h | AUC(0-t) ([3]; rat, 5 mg/kg single oral dose): 28.4 µg·h/mL | Cmax ([3]; rat, 5 mg/kg single oral dose, deuterated form): 3590 ng/mL | AUC(0-t) ([3]; rat, 35 mg/kg single oral dose): 182 µg·h/mL | bioavailability ([3]; rat, 5 mg/kg, 5 mg/kg single oral dose, estimate using an AUC of 15 for a 1 mg/kg IV arm, read-out: % F): 37.8% | bioavailability ([3]; rat, 35 mg/kg, 35 mg/kg single oral dose, estimate using an AUC of 15 for a 1 mg/kg IV arm, read-out: % F): 34.7% | bioavailability ([3]; rat, 35 mg/kg, oral, rats, read-out: estimated plasma % F (bioavailability)): ~35%
SMILES: CCCCCCCCCCCCCC(C)C(=O)O (stereo not drawn) [2-methyl-C15:0, 2-methylpentadecanoic acid]
CD40 [2]: lower | ICAM-1 [2]: lower | IL-1α [2]: lower | IL-8 [2]: lower | IP-10 [2]: lower | IP-18 [2]: lower | MCP-1 [2]: lower | MIG [2]: lower | MMP-1 [2]: lower | MMP-3 [2]: lower | MMP-9 [2]: lower | PAI-1 [2]: lower | VCAM-1 [2]: lower | eotaxin-3 [2]: lower | keratin 8/18 [2]: lower | secreted IgG [2]: lower
